We go through 5 compounds from patent US20080194636A1, “Enzyme Inhibitors and Uses Thereof” (Howard Florey Institute Of Experimental Physiology And …, priority 2004, published 2008).

The structures appear in SMILES notation.

One assay concerns 3T3-L1 cells. Particulars: 0.1 and 1 uM; basal and insulin (0.7 nM) stimulated; cited from earlier work.
Assay [1] has as its target T1, insulin-regulated aminopeptidase (IRAP) (Homo sapiens, UniProt Q9UIQ6).
T1 construct: containing the cDNA encoding the full length human RAP were utilised; made in house; host or cells: HEK293 cells transfected with pcDNA-3
Nature of the assay: In vitro enzymatic assay for inhibitors of IRAP (hydrolysis of Leu-MCA, fluorescence). The class given is biochemical. Particulars: recombinant full length human IRAP from transfected HEK293 cells; substrate Leu-MCA. The protocol: An in vitro enzymatic assay was used for screening for compounds which inhibit IRAP activity. The assay used an aminopeptidase substrate (leucine 4-methylcoumaryl-7-amide), a source of IRAP-containing material, and a candidate inhibitor.
IRAP-containing material was incubated with a synthetic aminopeptidase substrate, such as Leu-MCA (leucine 4-methylcoumaryl-7-amide), and a test substance. Inhibition of the rate of degradation of the synthetic substrate was taken as a measure of the inhibitory effect of the test substance.
As a source of recombinant IRAP, HEK293 cells transfected with a eukaryotic expression vector pcDNA-3 containing the cDNA encoding the full length human RAP were utilised. The assay system involved the measurement of the rate of hydrolysis of Leu-MCA by RAP. […] Candidate test compounds were added to the assay system, and their effects on the hydrolysis of Leu-MCA were taken to be direct indicators of their ability to inhibit IRAP activity.

For assay [2], the system named is scopolamine-induced memory deficit. The assay is described as follows: Scopolamine-induced memory deficit model, inhibitory avoidance paradigm. The assay is classed as in vivo, rat. Conditions: rats, following scopolamine, retrieval trial 24 h later, vs scopolamine followed by vehicle. The method, then: The effect of IRAP inhibitor Compound 1 on scopolamine-induced amnesia was tested in the inhibitory avoidance paradigm.
The inhibitory avoidance box is made up of two chambers, a smaller light compartment and a larger darken compartment and the test comprises of two trials. The first training trial involves placing the rat in the light compartment facing the wall and as soon as it runs to the end of the dark compartment and turns around, an electric shock of 0.6 mA is administered for 2 s and the animal is left in the dark compartment for a total of 15 s before being returned to its home cage. After a 24 h interval, the animal is then tested again and the latency in entering the dark chamber is a measure of the ability of the animal to remember the aversive stimulus. To test for the effect of the IRAP inhibitors, the rats were implanted with a chronic indwelling cannula into the lateral ventricles 1 week before the behavioural experiments. On the day of the testing, 15 min before the training trial, the rats were injected with either […] scopolamine hydrobromide dissolved in 2 ul of 0.9% saline or 0.9% saline before being placed in the inhibitory avoidance box for the training trial. Immediately after the training trial, the rats were injected with either 0.2 or 2 nmol of compound 1 (from Example 1) dissolved in 2 ul of 10% DMSO or vehicle control. […]

T1 sequence (Q9UIQ6 whole entry): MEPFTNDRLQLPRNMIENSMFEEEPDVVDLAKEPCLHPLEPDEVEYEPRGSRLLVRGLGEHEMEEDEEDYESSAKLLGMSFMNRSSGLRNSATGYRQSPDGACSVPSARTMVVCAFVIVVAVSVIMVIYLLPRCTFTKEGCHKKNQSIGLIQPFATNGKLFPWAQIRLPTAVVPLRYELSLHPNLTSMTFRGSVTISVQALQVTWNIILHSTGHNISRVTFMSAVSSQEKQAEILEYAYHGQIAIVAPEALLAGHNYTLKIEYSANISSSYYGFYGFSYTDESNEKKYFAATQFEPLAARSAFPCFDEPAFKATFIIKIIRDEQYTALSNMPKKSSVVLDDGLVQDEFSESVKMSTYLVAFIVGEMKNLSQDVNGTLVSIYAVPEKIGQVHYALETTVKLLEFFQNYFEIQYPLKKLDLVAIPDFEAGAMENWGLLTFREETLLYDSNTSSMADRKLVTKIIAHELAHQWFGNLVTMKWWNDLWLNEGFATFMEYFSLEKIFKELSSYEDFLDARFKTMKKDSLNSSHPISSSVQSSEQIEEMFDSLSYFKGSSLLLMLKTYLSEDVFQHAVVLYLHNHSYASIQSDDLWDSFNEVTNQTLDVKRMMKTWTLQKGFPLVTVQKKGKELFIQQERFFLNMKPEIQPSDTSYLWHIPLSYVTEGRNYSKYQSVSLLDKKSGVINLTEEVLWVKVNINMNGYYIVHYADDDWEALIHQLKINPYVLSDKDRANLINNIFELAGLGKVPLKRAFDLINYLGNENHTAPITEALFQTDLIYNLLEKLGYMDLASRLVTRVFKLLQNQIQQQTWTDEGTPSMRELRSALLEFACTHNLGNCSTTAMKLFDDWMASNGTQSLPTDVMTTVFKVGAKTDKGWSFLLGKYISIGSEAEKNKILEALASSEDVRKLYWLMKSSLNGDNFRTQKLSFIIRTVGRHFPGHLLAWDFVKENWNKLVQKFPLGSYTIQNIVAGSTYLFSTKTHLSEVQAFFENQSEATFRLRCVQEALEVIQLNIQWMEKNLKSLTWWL

In the case of `CC[C@H](C)[C@H](NC(=O)[C@H](Cc1ccc(O)cc1)NC(=O)[C@@H](N)C(C)C)C(=O)N[C@@H](Cc1cnc[nH]1)C(=O)N1CCC[C@H]1C(=O)N[C@@H](Cc1ccccc1)C(=O)O` [Ang IV], the glucose uptake result with 3T3-L1 cells is “enhance”. For the compound `COc1ccc(C2C(C#N)=C(N)Oc3cc(O)ccc32)cc1` (stereo not shown) [Compound 9], in assay [1], the IC50 (commonly the concentration at which inhibition is half-maximal) came out at 80 µM.

Turning to `CCOC(=O)C1=C(N)Oc2cc(O)ccc2C1c1cccc(Cl)c1` (stereo not shown) [Compound 2], the IC50 in assay [1] was 42 µM. Turning to `CCOC(=O)C1=C(N)Oc2cc(O)ccc2C1c1cccnc1` (stereo not shown) [Compound 1], the IC50 in assay [1] is 4 µM. Moreover, the “latency in entering the dark chamber” value in assay [2] (0.2 nmol icv immediately after training trial) and in assay [2] (2 nmol icv immediately after training trial) was “increased latencies” in each case. For `COc1ccc(C2C(C#N)=C(N)Oc3cc(O)ccc32)cc1OC` (stereo not shown) [Compound 3], the IC50 in assay [1] came out at 45 µM.
